In patent publication US11091522B2, “Peptidomimetic macrocycles and uses thereof” (priority 2018, dated 2021):
One block for each compound: values may come before it.

Key:
Caspase 3 = Caspase 3 detection assay in SJSA-1 cells; format: cell-based, human; details: SJSA-1 cells, 48 h, Caspase 3 activation over DMSO-treated cells
Procedure: One the day of the assay, the media was replaced with fresh RPMI-11% FBS assay media. […] Control wells contained no cells, and received 200 μL of the assay media.
The solutions were serially diluted 33.3 times using sterile water to provide a range of 10× working stock solutions. […] 20 μL of the 10× working stock solutions were added to the appropriate wells. Row H of the plates had control wells. Wells H1-H3 received 20 μL of the assay media. […] Wells H10-H12 received media and had no cells. […] Nutlin-3a was diluted using the same dilution scheme as the peptides.
10 μL of the 10× stock solutions were added to the appropriate wells to achieve the final concentrations in a total volume of 100 μL. […] 48 h after incubation, 80 μL of the media was aspirated from each well. 100 μL of Caspase 3/7Glo assay reagent was added to each well. […] Data were analyzed as Caspase 3 activation over DMSO-treated cells.

SJSA-1 cells = test: Cell lysis by peptidomimetic macrocycles (LDH release); format: cell-based, human
Procedure: SJSA-1 cells were plated out one day in advance in clear, flat-bottom plates at a density of 7500 cells/well with 100 μL/well of growth media. Row H columns 10-12 were left empty to be treated with media alone. On the day of the assay, the media was exchanged with RPMI 1% FBS media to result in 90 μL of media per well. 10 mM stock solutions of the peptidomimetic macrocycles were prepared in 100% DMSO. The peptidomimetic macrocycles were diluted serially in 100% DMSO, and further diluted 20-fold in sterile water to prepare working stock solutions in 5% DMSO/water. The concentrations of the peptidomimetic macrocycles ranged from 500 μM to 62.5 μM.
10 μL of each compound solution was added to the 90 μL of SJSA-1 cells to yield final concentration of 50 μM to 6.25 μM in 0.5% DMSO-containing media. The negative control (non-lytic sample) was 0.5% of DMSO alone. The positive control (lytic) samples included 10 μM of Melittin and 1% Triton X-100. The cell plates were incubated for 1 h at 37° C. After incubation for 1 h, the morphology of the cells was examined by microscope. The plates were then centrifuged at 1200 rpm for 5 min at room temperature. 40 μL of the supernatant for each peptidomimetic macrocycle and control sample was transferred to clear assay plates. LDH release was measured using an LDH cytotoxicity assay kit.

MCF7 cells = format: cell-based, human; details: Homo sapiens
[1] = tested on: SJSA1 osteosarcoma cancer cells; test: cells; details: Homo sapiens, SJSA-1, 120 h, read-out: IC50, cellular proliferation
[2] = Pharmacokinetics of AP1 and palbociclib in non-tumor-bearing nu/nu mice; details: nu/nu, mouse, plasma, po, 75 mg/kg, nu/nu mice; for AUC(0-t): AUClast
[3] = Alone, AP1 20 mg/kg or palbociclib 75 mg/kg alone
[4] = Co-administered, AP1 20 mg/kg with palbociclib 75 mg/kg

Structure (SMILES): CSCC[C@H](NC(=O)[C@H](C)NC(=O)[C@H](C)NC(=O)[C@]1(C)CCCC=CCCCCCC[C@@](C)(NC(=O)[C@H](Cc2ccccc2)NC(=O)[C@@H](NC(=O)[C@H](CC(C)C)NC(C)=O)[C@@H](C)O)C(=O)N[C@@H](C)C(=O)N[C@@H](Cc2ccc(O)cc2)C(=O)N[C@@H](Cc2c[nH]c3ccccc23)C(=O)N[C@@H](C)C(=O)N[C@@H](C)C(=O)N[C@@H](CC(C)C)C(=O)N1)C(=O)N[C@H](C)C(N)=O (single isomer, unassigned) [compound 72]
- caspase 0.3 μM (Caspase 3; 0.3 μM): 1
- caspase 3 μM (Caspase 3; 3 μM): 1
- caspase 10 μM (Caspase 3; 10 μM): 4
- caspase 30 μM (Caspase 3; 30 μM): 10
- 6.25 μM % Lysed cells (1 h LDH) (SJSA-1 cells; 6.25 μM): 2%
- 25 μM % Lysed cells (1 h LDH) (SJSA-1 cells; 25 μM): 0%
- 50 μM % Lysed cells (1 h LDH) (SJSA-1 cells; 50 μM): 3%

- IC50 [1]: 60 nM
- AUC(0-t) [2, 3]: 37000 ng·h/mL
- AUC(0-t) [2, 4]: 29000 ng·h/mL
- Cmax [2, 3]: 2900 ng/mL
- Cmax [2, 4]: 2600 ng/mL
Structure (SMILES): CC(=O)c1c(C)c2cnc(Nc3ccc(N4CCNCC4)cn3)nc2n(C2CCCC2)c1=O [palbociclib]
- inhibition at 0.0003 µM (MCF7 cells): -10%
- inhibition at 0.001 µM (MCF7 cells): -19%
- inhibition at 0.003 µM (MCF7 cells): -9.7%
- inhibition at 0.01 µM (MCF7 cells): 6.6%
- inhibition at 0.03 µM (MCF7 cells): 21.1%
- inhibition at 0.1 µM (MCF7 cells): 40.9%
- inhibition at 0.3 µM (MCF7 cells): 62.9%
- inhibition at 1 µM (MCF7 cells): 78.9%
- inhibition at 3 µM (MCF7 cells): 84%
- inhibition at 10 µM (MCF7 cells): 84.3%
- inhibition at 30 µM (MCF7 cells): 100%
